This is an account of results in patent US20100143332A1, “COMBINATION THERAPY FOR PROLIFERATIVE DISORDERS” (Schering Corporation, priority 2006, published 2010).

Test [1] has as its system Chk1 S345 in Polα complexes, U20S cells. The experiment in a line: Time course of Chk1 S345 accumulation in Polα immunoprecipitates. The test is classed as cell-based, Human. As to conditions: HU for 0.5, 1, 2 and 15 h; first time point tested; FIG. 9. As for the experimental part: Immunoprecipitation is performed as follows. Cell pellets are lysed in LT250 buffer (50 mM Tris-HCl pH 7.4, 250 mM NaCl, 5 mM EDTA, 0.1% NP-40, 10% glycerol, 1 mM DTT, 1:100 dilution of phosphatase inhibitor set I and II, and protease inhibitor cocktail set 111 (Calbiochem, San Diego, Calif.). Protein concentrations are determined using the Bio-Rad Protein Assay (Bio-Rad, Hercules, Calif.). For immunoprecipitation, protein lysates (2 mg) are incubated with anti-Polα (SJK 132-20) antibody cross-linked to ImmunoPure Protein G beads for 4 hours at 4° C. Pab419 monoclonal Ab against SV40 T antigen is typically used as a negative control.
(§1) A time course of HU induction of Chk1 phosphorylation was performed. U20S cells were treated with HU for 0.5, 1, 2 and 15 h, and protein extracts were prepared for immunoprecipitation. Polα was immunoprecipitated with Polα antibodies (SJK132-20) cross-linked to protein G. Western blots were performed using anti-Polα, anti-Chk1, and anti-Chk1 S345 antibodies (FIG. 9). Chk1 phosphorylation was complete at even the earliest timepoint, and both Chk1 and Chk1 S345P co-immunoprecipitated with Polα.

The subject of test [2] is RPA32 S33 phosphorylation in U20S cells. The experiment in a line: Western blot of RPA32 S33 phosphorylation in cell extracts. The test is classed as cell-based, Human. The conditions noted are these: 1 mM HU 15 h, cells transfected with luciferase (control) siRNA, FIG. 10. As for the experimental part:
(§2) Cell lines, drugs, and siRNA treatment materials and methods are as follow. Human U20S osteosarcoma cells are grown in DMEM (Mediatech, Herndon, Va.) supplemented with 10% FBS (JRH BioSciences, St. Louis, Mo.), 200 U/ml penicillin, 200 μg/ml streptomycin, and 300 μg/ml L-Glutamine (Cambrex). HU (Sigma, St. Louis, Mo.) is used at 1 mM for 15 hours.
(§3) Cells are transfected with 50 nM siRNA for Chk1, 100 nM siRNA for Luciferase (Luc), PolA, PolE, PolD1, and ATR duplexes using Lipofectamine 2000 (Invitrogen, Carlsbad, Calif.) according to the manufacturer's protocol.
(§4) Western blot analysis of siRNA knockdowns is performed as follows. Cell pellets are trypsinized, washed with PBS, and lysed in 2×SDS sample buffer (Invitrogen, Carlsbad, Calif.). Protein extracts are separated by SDS-polyacrylamide gel electrophoresis and transfer to Immobilon®-P membrane (Millipore, Billarica, Mass.). Antibodies used in this study are obtained from Santa Cruz Biotechnology, Inc. (Santa Cruz, Calif.) (Polα, Polε, Polδ, Rad17), Cell Signaling Technology, Inc. (Danvers, Mass.) (pS345-Chk1, pT68-Chk2), Stressgen Bioreagents Corp. (San Diego, Calif.) (Chk1), and Bethyl Laboratories, Inc. (Montgomery, Tex.) (pS33-RPA 32).
Cells were tested for Chk1 and RPA32 phosphorylation as a function of depletion of DNA polymerases alone and in combination with depletion of Chk1. […]
For orientation: In western blotting, separated proteins are transferred to a membrane and probed.

The subject of test [3] is γ-H2A.X phosphorylation in U20S cells. Description: γ-H2A.X phosphorylation by intracellular staining and FACS (marker of double-stranded DNA breaks). The test is classed as cell-based, Human. As for the experimental part: as §2, §3
Flow cytometric analysis, e.g. γ-H2AX detection for DNA damage and BrdU incorporation for cell cycle analysis, is performed as described previously (Cho et al. (2005) Cell Cycle 4:131) and analyzed with a BD LSR II (BD BioSciences, San Jose, Calif.) using FacsDIVA software.

Test [4] has as its system Chk1 S345 phosphorylation in U20S cells. The experiment in a line: Western blot of Chk1 S345 phosphorylation in cell extracts. The test is classed as cell-based, Human. As to conditions: for Chk1 S345 phosphorylation after antimetabolite treatment: 1 mM HU, 5 μM Gem or 5 μM Ara-C for 2 h, FIG. 1. As for the experimental part:
as §2, §3, §4
U20S cells were untreated (“-”) or treated with 1 mM HU, 5 μM Gem, or 5 μM Ara-C for 2 h. Cell extracts were prepared and immunoblotted with a phospho-Chk1 S345 antibody to show phosphorylated Chk1 (Chk1 S345) and Chk1 (loading control). […] Liu et al. (2000) Genes Dev. 14:1448; Zhao & Piwnica-Worms (2001) Mol. Cell. Biol. 21:4129; Capasso et al. (2002) J. Cell Sci. 115:4555.
At 48 h after siRNA transfections, extracts were prepared and immunoblotted with the indicated antibodies. HU-treated cells were treated with 1 mM HU for 7 h before harvest.

Test [5] deals with T1, human DNA polymerase alpha (human, UniProt P09884 1-1462).
T1 construct: Endogenous protein in lysates of human U20S osteosarcoma cells; Other subunits of the polymerase alpha complex may have been present in the immune complexes; also called Polα; PolA gene product
T1 sequence: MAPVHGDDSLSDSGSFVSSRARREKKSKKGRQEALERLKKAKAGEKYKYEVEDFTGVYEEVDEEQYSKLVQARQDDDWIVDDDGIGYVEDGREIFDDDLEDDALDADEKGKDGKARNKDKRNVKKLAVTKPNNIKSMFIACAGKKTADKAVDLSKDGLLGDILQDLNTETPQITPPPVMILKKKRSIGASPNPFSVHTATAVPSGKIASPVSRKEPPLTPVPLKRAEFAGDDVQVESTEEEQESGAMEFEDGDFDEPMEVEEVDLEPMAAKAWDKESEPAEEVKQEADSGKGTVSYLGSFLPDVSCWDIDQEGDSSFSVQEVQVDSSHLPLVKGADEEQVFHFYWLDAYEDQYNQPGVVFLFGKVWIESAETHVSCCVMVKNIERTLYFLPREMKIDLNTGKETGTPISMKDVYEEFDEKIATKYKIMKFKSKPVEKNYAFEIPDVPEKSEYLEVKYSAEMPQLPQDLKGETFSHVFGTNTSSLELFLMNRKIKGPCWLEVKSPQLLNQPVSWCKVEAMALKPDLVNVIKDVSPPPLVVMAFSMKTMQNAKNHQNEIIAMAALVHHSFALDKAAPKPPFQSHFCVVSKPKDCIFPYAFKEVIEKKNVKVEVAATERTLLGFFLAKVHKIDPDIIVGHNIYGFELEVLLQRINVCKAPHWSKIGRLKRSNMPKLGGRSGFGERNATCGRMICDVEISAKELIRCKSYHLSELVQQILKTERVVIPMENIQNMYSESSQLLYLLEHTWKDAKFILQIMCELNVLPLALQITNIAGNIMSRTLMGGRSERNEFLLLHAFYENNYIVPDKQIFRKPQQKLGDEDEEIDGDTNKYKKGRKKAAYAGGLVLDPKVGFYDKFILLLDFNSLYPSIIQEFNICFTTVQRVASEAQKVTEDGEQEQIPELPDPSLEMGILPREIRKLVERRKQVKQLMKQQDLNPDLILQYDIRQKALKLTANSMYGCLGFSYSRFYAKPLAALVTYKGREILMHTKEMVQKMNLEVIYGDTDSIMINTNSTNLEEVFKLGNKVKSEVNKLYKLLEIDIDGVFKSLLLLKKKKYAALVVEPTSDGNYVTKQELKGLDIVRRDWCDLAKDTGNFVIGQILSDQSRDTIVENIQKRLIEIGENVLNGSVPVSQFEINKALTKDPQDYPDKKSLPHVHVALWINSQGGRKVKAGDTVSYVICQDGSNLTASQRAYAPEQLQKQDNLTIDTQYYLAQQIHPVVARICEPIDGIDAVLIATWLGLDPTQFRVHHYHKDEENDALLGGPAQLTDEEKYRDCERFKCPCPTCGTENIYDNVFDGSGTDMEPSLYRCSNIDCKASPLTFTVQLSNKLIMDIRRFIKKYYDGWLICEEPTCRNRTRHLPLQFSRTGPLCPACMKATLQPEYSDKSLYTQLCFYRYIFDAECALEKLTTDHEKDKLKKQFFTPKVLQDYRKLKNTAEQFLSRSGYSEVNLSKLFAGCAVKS
The experiment in a line: immunoprecipitation with SJK132-20, HU time course, western blot. As for the experimental part:
as §1

For `NC(=O)NO` [HU, hydroxyurea], the “time at which Chk1 S345 response in Polα complexes was complete” value in test [1] is at most 0.5 h. Further, the “RPA32 phosphorylation in whole cell extracts” value in test [2] is given as “low level RPA32 phosphorylation”. Moreover, the “H2A.X phosphorylation compared to control samples” value in test [3] (FIG. 4A, average of three experiments) is given as “modestly increase”. The “cells exhibiting DNA damage compared with control cultures” value in test [3] (FIGS. 2B and 2C, siRNA 48 h, HU 1 mM with control siRNA) was “approximately 10 fold”. Also, the “Chk1 S345 phosphorylation in whole cell extracts” value in test [4] (1 mM HU 15 h, cells transfected with luciferase (control) siRNA, FIG. 10) is on record as “strong Chk1 S345 phosphorylation”. Also, the “Chk1 S345 phosphorylation after antimetabolite treatment” value in test [4] is on record as “induced substantial phosphorylation of Chk1”.
For the molecule `Nc1ccn([C@@H]2O[C@H](CO)[C@@H](O)C2(F)F)c(=O)n1` [Gem, gemcitabine], the “Chk1 S345 phosphorylation after antimetabolite treatment” value in test [4] is listed as “induced substantial phosphorylation of Chk1”.
On the same count and under the same terms, then `Nc1ccn([C@@H]2O[C@H](CO)[C@@H](O)[C@@H]2O)c(=O)n1` [Ara-C, cytarabine], with “induced substantial phosphorylation of Chk1”.
In the case of `COc1ccc(CNC(=O)c2cccc(-c3cnc(N)c(C(=O)N[C@H]4CCCNC4)n3)c2)cc1` [3-amino-6-{3-[({[4-(methyloxy)phenyl]methyl}amino)carbonyl]phenyl}-N-[(3S)-piperidin-3-yl]pyrazine-2-carboxamide], the “percentage of cells exhibiting substantial double-stranded DNA breaks (γ-H2AX)” value in test [3] (Chk1 inhibitor 2.5 μM, 2 hours, combined with siRNA ablation of PolA, controls less than 1%, FIG. 4B) is “over 50%”.

B1: Chk1 S345P (Chk1 phosphorylated at S345) (enzyme)
chain: MAVPFVEDWDLVQTLGEGAYGEVQLAVNRVTEEAVAVKIVDMKRAVDCPENIKKEICINKMLNHENVVKFYGHRREGNIQYLFLEYCSGGELFDRIEPDIGMPEPDAQRFFHQLMAGVVYLHGIGITHRDIKPENLLLDERDNLKISDFGLATVFRYNNRERLLNKMCGTLPYVAPELLKRREFHAEPVDVWSCGIVLTAMLAGELPWDQPSDSCQEYSDWKEKKTYLNPWKKIDSAPLALLHKILVENPSARITIPDIKKDRWYNKPLKKGAKRPRVTSGGVSESPSGFSKHIQSNLDFSPVNSASSEENVKYSSSQPEPRTGLSLWDTSPSYIDKLVQGISFSQPTCPDHMLLNSQLLGTPGSSQNPWQRLVKRMTRFFTKLDADKSYQCLKETCEKLGYQWKKSCMNQVTISTTDRRNNKLIFKVNLLEMDDKILVDFRLSKGDGLEFKRHFLKIKGKLIDIVSSQKVWLPAT
modifications: phosphoserine at 345 (Chk1 S345P)
notes: also called phospho-S345 Chk1; Chk S345P
Consider B1, for which, in test [5], the binding result is reported as “binds”.
